US8686146B2, “Azaindenoisoquinoline topoisomerase I inhibitors” (Purdue Research Foundation, priority 2012, dated 2014)
Structures can show the parent of a compound that is named as a salt. Where two headings read alike, the source gives them in different places. Each block holds one molecule with its values, some of them ahead of it.

Key:
SF-539 = assay: NCI screen antiproliferative activity, CNS SF-539
Description: (§1) Cells of approximately 60 different human cancer cell lines were incubated for 48 h with five 10-fold dilutions of the tested compounds starting from 100 μM and then treated with sulforhodamine B dye. The ratios of recorded optical densities relative to that of the control were plotted as a function of the common logarithm of the tested compound concentrations. […] The GI50 and the mean graph midpoint (MGM) values of the prepared indenoisoquinolines in selected cell lines are presented in Table I.
(§2) The antiproliferative activity of each compound was determined in the National Cancer Institute (NCI) screen as described above. Cells of approximately 60 different human cancer cell lines were incubated for 48 h with five 10-fold dilutions of the test compounds starting from 100 μM, and then treated with sulforhodamine B dye. The ratios of recorded optical densities relative to those of the control were plotted as a function of the common logarithm of the tested compound concentrations. […] The GI50 and the mean graph midpoint (MGM) values of the prepared (aza)indeno-isoquinolines in selected cell lines are presented in Table 2.

MCF7 = assay: NCI screen antiproliferative activity, breast MCF7
Description: as §1, §2

DU-145 = assay: NCI screen antiproliferative activity, prostate DU-145
Description: as §1, §2

UACC-62 = assay: NCI screen antiproliferative activity, melanoma UACC-62
Description: as §1, §2

HCT-116 = assay: NCI screen antiproliferative activity, colon HCT-116
Description: as §1, §2

SN12C = assay: NCI screen antiproliferative activity, renal SN12C
Description: as §1, §2

HOP-62 = assay: NCI screen antiproliferative activity, lung HOP-62
Description: as §1, §2

[1] = system: approximately 60 different human cancer cell lines; assay: NCI screen, mean graph midpoint over all cell lines; type: cell-based; settings: all human cancer cell lines successfully tested, 48 h
Description: as §1, §2

OVCAR-3 = assay: NCI screen antiproliferative activity, ovarian OVCAR-3
Description: as §1, §2

human recombinant Top1 = target: T1, human recombinant Top1 (Homo sapiens, UniProt P11387); assay: Top1-mediated DNA cleavage assay; type: biochemical; settings: semiquantitative, relative to compounds 1 and 2
T1 construct: made in house
T1 sequence (P11387 1-765): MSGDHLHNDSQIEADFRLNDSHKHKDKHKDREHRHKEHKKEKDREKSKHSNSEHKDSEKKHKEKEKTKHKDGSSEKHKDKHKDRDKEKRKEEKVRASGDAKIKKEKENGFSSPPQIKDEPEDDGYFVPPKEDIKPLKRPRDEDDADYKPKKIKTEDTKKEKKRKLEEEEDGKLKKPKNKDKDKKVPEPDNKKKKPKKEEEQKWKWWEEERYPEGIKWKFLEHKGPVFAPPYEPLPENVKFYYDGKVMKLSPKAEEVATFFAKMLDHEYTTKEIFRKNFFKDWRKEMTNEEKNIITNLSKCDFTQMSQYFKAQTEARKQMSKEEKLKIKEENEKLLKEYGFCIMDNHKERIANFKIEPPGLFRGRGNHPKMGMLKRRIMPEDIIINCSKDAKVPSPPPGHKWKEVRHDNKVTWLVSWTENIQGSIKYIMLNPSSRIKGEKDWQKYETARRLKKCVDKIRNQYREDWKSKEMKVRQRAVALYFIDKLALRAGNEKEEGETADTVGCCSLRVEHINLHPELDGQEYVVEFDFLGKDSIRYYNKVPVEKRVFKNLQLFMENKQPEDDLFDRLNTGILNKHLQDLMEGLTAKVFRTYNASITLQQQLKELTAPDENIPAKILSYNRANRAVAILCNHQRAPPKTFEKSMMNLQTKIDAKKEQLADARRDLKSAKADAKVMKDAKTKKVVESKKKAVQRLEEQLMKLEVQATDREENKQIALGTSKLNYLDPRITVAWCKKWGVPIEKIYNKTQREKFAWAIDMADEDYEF
Description: Unincorporated [^32P]dGTP was removed using mini Quick […] columns (Roche, Indianapolis, Ind.), and the eluate containing the […] DNA substrate was collected. […] Aliquots of each reaction mixture were subjected to 20% denaturing PAGE. […] The DNA fragments were separated on a denaturing gel. […] All of the target compounds were tested for induction of DNA damage in Top1-mediated DNA cleavage assays, as described above.

[2] = Homo sapiens, 48 h, read-out: cytotoxicity (GI50) CNS SF-539, 48 h, sulforhodamine B, single determination, Table 2
[3] = Homo sapiens, MCF7, 48 h, read-out: cytotoxicity (GI50) breast MCF7, 48 h, sulforhodamine B, single determination, Table 2
[4] = Homo sapiens, DU-145, 48 h, read-out: cytotoxicity (GI50) prostate DU-145, 48 h, sulforhodamine B, single determination, Table 1
[5] = Homo sapiens, DU-145, 48 h, read-out: cytotoxicity (GI50) prostate DU-145, 48 h, sulforhodamine B, single determination, Table 2
[6] = Homo sapiens, UACC-62, 48 h, read-out: cytotoxicity (GI50) melanoma UACC-62, 48 h, sulforhodamine B, single determination, Table 1
[7] = Homo sapiens, UACC-62, 48 h, read-out: cytotoxicity (GI50) melanoma UACC-62, 48 h, sulforhodamine B, single determination, Table 2
[8] = Homo sapiens, HCT-116, 48 h, read-out: cytotoxicity (GI50) colon HCT-116, 48 h, sulforhodamine B, single determination, Table 1
[9] = Homo sapiens, HCT-116, 48 h, read-out: cytotoxicity (GI50) colon HCT-116, 48 h, sulforhodamine B, single determination, Table 2
[10] = Homo sapiens, SN12C, 48 h, read-out: cytotoxicity (GI50) renal SN12C, 48 h, sulforhodamine B, single determination, Table 1
[11] = Homo sapiens, SN12C, 48 h, read-out: cytotoxicity (GI50) renal SN12C, 48 h, sulforhodamine B, single determination, Table 2
[12] = Homo sapiens, HOP-62, 48 h, read-out: cytotoxicity (GI50) lung HOP-62, 48 h, sulforhodamine B, single determination, Table 1
[13] = Homo sapiens, HOP-62, 48 h, read-out: cytotoxicity (GI50) lung HOP-62, 48 h, sulforhodamine B, single determination, Table 2
[14] = Homo sapiens, MCF7, 48 h, read-out: cytotoxicity (GI50) breast MCF7, 48 h, sulforhodamine B, single determination, Table 1
[15] = Homo sapiens, OVCAR-3, 48 h, read-out: cytotoxicity (GI50) ovarian OVCAR-3, 48 h, sulforhodamine B, single determination, Table 1

SMILES: CC[C@@]1(O)C(=O)OCc2c1cc1n(c2=O)Cc2cc3ccccc3nc2-1 [Compound 1, camptothecin, reference compound]
GI50 (SF-539; [2]): 0.01 µM | GI50 (MCF7; [3]): 0.013 µM | GI50 (DU-145; [4]): 0.01 µM | GI50 (DU-145; [5]): 0.01 µM | GI50 (UACC-62; [6]): 0.01 µM | GI50 (UACC-62; [7]): 0.01 µM | GI50 (HCT-116; [8]): 0.03 µM | GI50 (HCT-116; [9]): 0.03 µM | GI50 (SN12C; [10]): 0.02 µM | GI50 (SN12C; [11]): 0.02 µM | GI50 (HOP-62; [12]): 0.01 µM | GI50 (HOP-62; [13]): 0.01 µM | MGM (mean graph midpoint for growth inhibition) ([1]; Table 1): 0.04 µM | MGM (mean graph midpoint for growth inhibition) ([1]; Table 2): 0.040 µM

SMILES: COc1cc2c3c(n(C)c(=O)c2cc1OC)-c1cc2c(cc1C3=O)OCO2 [Compound 2, reference compound]
GI50 (SF-539; [2]): 1.7 µM | GI50 (MCF7; [14]): 1.91 µM | GI50 (MCF7; [3]): 1.9 µM | GI50 (DU-145; [4]): 4.79 µM | GI50 (DU-145; [5]): 4.8 µM | GI50 (UACC-62; [7]): 0.56 µM | GI50 (HCT-116; [8]): 11.5 µM | GI50 (HCT-116; [9]): 11.5 µM | GI50 (SN12C; [10]): 25.7 µM | GI50 (SN12C; [11]): 26 µM | GI50 (HOP-62; [12]): 2.82 µM | GI50 (HOP-62; [13]): 2.8 µM | MGM (mean graph midpoint for growth inhibition) ([1]; Table 1): 8.51 µM | MGM (mean graph midpoint for growth inhibition) ([1]; Table 2): 8.5 µM

Top1 Cleavage (human recombinant Top1; Table 1): +++
SMILES: CN(C)CCCn1c2c(c3ccccc3c1=O)C(=O)c1cccnc1-2 [Compound 18, 7-Aza-5,6-dihydro-6-(3-dimethylaminopropyl)-5,11-dioxo-11H-indeno[1,2-c]-isoquinoline Hydrochloride]
GI50 (MCF7; [14]): 0.25 µM | GI50 (OVCAR-3; [15]): 2.57 µM | GI50 (DU-145; [4]): 1.35 µM | GI50 (UACC-62; [6]): 2.69 µM | GI50 (HCT-116; [8]): 0.41 µM | GI50 (SN12C; [10]): 0.81 µM | GI50 (HOP-62; [12]): 1.51 µM | MGM (mean graph midpoint for growth inhibition) ([1]; Table 1): 1.78 µM

SMILES: CN(C)CCCn1c2c(c3ccc([N+](=O)[O-])cc3c1=O)C(=O)c1cccnc1-2.Cl [Compound 20, 7-Aza-5,6-dihydro-6-(3-dimethylaminopropyl)-3-nitro-5,11-dioxo-11H-indeno[1,2-c]isoquinoline Hydrochloride]
GI50 (SF-539): 2.69 µM | GI50 (MCF7): 0.36 µM | GI50 (OVCAR-3): 2.29 µM | GI50 (DU-145): 0.93 µM | GI50 (UACC-62): 3.31 µM | GI50 (HCT-116): 0.44 µM | GI50 (SN12C): 1 µM | GI50 (HOP-62): 2.35 µM | MGM (mean graph midpoint for growth inhibition) ([1]; Table 1): 1.86 µM

SMILES: Cl.O=C1c2cccnc2-c2c1c1ccccc1c(=O)n2CCCN1CCOCC1 [Compound 21, 7-Aza-5,6-dihydro-6-(3-morpholinopropyl)-5,11-dioxo-11H-indeno[1,2-c]iso-quinoline Hydrochloride]
GI50 (SF-539): 5.62 µM | GI50 (MCF7): 2.75 µM | GI50 (OVCAR-3): 28.2 µM | GI50 (DU-145): 3.55 µM | GI50 (UACC-62): > 100 µM | GI50 (HCT-116): 1.86 µM | GI50 (SN12C): 5.37 µM | GI50 (HOP-62): 35.5 µM | MGM (mean graph midpoint for growth inhibition) ([1]; Table 1): 15.49 µM

Top1 Cleavage (human recombinant Top1; Table 1): +++
SMILES: O=C1c2cccnc2-c2c1c1ccc([N+](=O)[O-])cc1c(=O)n2CCCN1CCOCC1 [Compound 23, 7-Aza-5,6-dihydro-6-(3-morpholinopropyl)-3-nitro-5,11-dioxo-1H-indeno-[1,2-c]isoquinoline Hydrochloride]

Top1 Cleavage (human recombinant Top1; Table 1): ++
SMILES: COc1cc2c3c(n(CCCn4ccnc4)c(=O)c2cc1OC)-c1ncccc1C3=O [Compound 29, 7-Aza-5,6-dihydro-6-(3-(1H-imidazol-1-yl)propyl)-2,3-dimethoxy-5,11-dioxo-11H-indeno[1,2-c]isoquinoline]

SMILES: COc1cc2c3c(n(CCCNCCO)c(=O)c2cc1OC)-c1ncccc1C3=O.Cl [Compound 31, 7-Aza-5,6-dihydro-6-(3-(2-hydroxyethylamino)propyl)-2,3-dimethoxy-5,11-dioxo-11H-indeno[1,2-c]isoquinoline Hydrochloride]
GI50 (SF-539): 0.26 µM | GI50 (MCF7): 0.074 µM | GI50 (OVCAR-3): 0.34 µM | GI50 (DU-145): 0.32 µM | GI50 (UACC-62): 0.12 µM | GI50 (HCT-116): 0.15 µM | GI50 (SN12C): 0.23 µM | GI50 (HOP-62): 0.3 µM | MGM (mean graph midpoint for growth inhibition) ([1]; Table 1): 0.29 µM

SMILES: COc1cc2c3c(n(CCCN)c(=O)c2cc1OC)-c1ncccc1C3=O.Cl [Compound 32, 7-Aza-5,6-dihydro-6-(3-aminopropyl)-2,3-dimethoxy-5,11-dioxo-11H-indeno[1,2-c]isoquinoline Hydrochloride]
GI50 (SF-539): 2.19 µM | GI50 (MCF7): 49 µM | GI50 (OVCAR-3): 1.58 µM | GI50 (DU-145): 1.62 µM | GI50 (UACC-62): 8.13 µM | GI50 (HCT-116): 0.38 µM | GI50 (SN12C): 2.88 µM | GI50 (HOP-62): 3.02 µM | MGM (mean graph midpoint for growth inhibition) ([1]; Table 1): 2.09 µM

SMILES: CN(C)CCCn1c2c(c3ccccc3c1=O)C(=O)c1ccccc1-2 [Compound 33, reference compound]
GI50 (MCF7; [14]): 0.55 µM | GI50 (OVCAR-3; [15]): 1.66 µM | GI50 (DU-145; [4]): 1.32 µM | GI50 (UACC-62; [6]): 0.51 µM | GI50 (HCT-116; [8]): 0.58 µM | GI50 (SN12C; [10]): 0.91 µM | GI50 (HOP-62; [12]): 1.74 µM | MGM (mean graph midpoint for growth inhibition) ([1]; Table 1): 1.86 µM

SMILES: COc1cc2c3c(n(CCCN(C)C)c(=O)c2cc1OC)-c1cccnc1C3=O.O=C(O)C(F)(F)F [Compound 37, 10-Aza-5,6-dihydro-6-(3-dimethylaminopropyl)-2,3-dimethoxy-5,11-dioxo-11H-indeno[1,2-c]isoquinoline Trifluoroacetate]
Top1 Cleavage (human recombinant Top1; Table 2): ++

SMILES: COc1ccc2c(n1)C(=O)c1c-2n(CCCN(C)C)c(=O)c2cc(OC)c(OC)cc12.O=C(O)C(F)(F)F [Compound 45, 10-Aza-5,6-dihydro-6-(3-dimethylaminopropyl)-2,3,9-trimethoxy-5,11-dioxo-11H-indeno[1,2-c]isoquinoline Trifluoroacetate]
Top1 Cleavage (human recombinant Top1; Table 2): +++

SMILES: COc1ccc2c(n1)C(=O)c1c-2n(CCCN2CCOCC2)c(=O)c2cc(OC)c(OC)cc12.O=C(O)C(F)(F)F [Compound 46, 10-Aza-5,6-dihydro-6-(3-(4-morpholino)propyl)-2,3,9-trimethoxy-5,11-dioxo-11H-indeno[1,2-c]isoquinoline Trifluoroacetate]
Top1 Cleavage (human recombinant Top1; Table 2): +++

SMILES: COc1cc2c3c(n(CCCN(C)C)c(=O)c2cc1OC)-c1cnccc1C3=O.O=C(O)C(F)(F)F [Compound 117, 8-Aza-5,6-dihydro-6-(3-dimethylaminopropyl)-2,3-dimethoxy-5,11-dioxo-11H-indeno[1,2-c]isoquinoline Trifluoroacetate]
Top1 Cleavage (human recombinant Top1; Table 2): ++
